The source of these data is patent publication US7846963B2, “2-oxo-heterocyclic compounds and the pharmaceutical compositions comprising the same” (Korea Research Institute of Bioscience and Biotechnology, priority 2003, dated 2010).

Assay [1] relates to production of TNF-alpha in RAW 264.7 cells. As to the kind of experiment: Inhibition of TNF-alpha production in LPS-treated RAW 264.7 cells, ELISA of culture supernatant. The format is cell-based, mouse. Also on record: TNF-alpha inhibition: scale not given here. To be noted: Table 23, LPS 0.3 μg/ml, 24 hours, compounds up to 10 μM, IC50 unit not given. The protocol: To test the inhibiting activity of the compounds prepared from above Examples on the production of TNF-alpha, the concentration of TNF-alpha in the cell supernatant was measured.
(§1) Each 200 μl of RAW 264.7 cells (ATCC, USA), a mouse macrophage cell line was seeded onto each well of 96-well microtiter plate (Nunc, Sweden) to the concentration ranging from 1×10^6 cells/ml to 5×10^6 cells/ml, and incubated in DMEM (Dulbeco's modified eagles medium) media containing 5% FBS (fetal bovine serum) at 37° C. in 5% CO2 incubator.
Various concentrations of the compounds of the present invention ranging from […] to 10 μM and LPS (Sigma, USA) in the final concentration of 0.3 μg/ml were treated to activated cell simultaneously. The treated cells were cultured at 37° C. for 24 hours in 5% CO2 incubator and the cultured cells were collected after the cultivation
And then the concentration of TNF-alpha secreted from the culture supernatant of RAW 264.7 cells was determined by ELISA according to the manufacture's instruction (R&D Systems, Minneapolis, Minn.).
The result was shown in Table 23 (AA: IC50's<1, A: IC50's<5, B: IC50's<10, C: IC50's>10).

Assay [2] concerns production of nitric oxide (NO) in RAW 264.7 cells. Briefly: Inhibition of NO (nitrite) production in LPS-activated RAW 264.7 macrophages, Griess reagent. As to conditions: Table 22, cited in b622 as nitrite/NO production result, LPS 0.3 μg/ml, 24 hours, compounds up to 10 μM, IC50 unit not given. Format: cell-based, mouse. Here is the method: To test the inhibiting activity of the compounds prepared from above Examples 1 to 6 on the production of nitric oxide (NO) caused by activated macrophage by lipopolysaccharide (LPS), the amount of accumulated […] in the cells was determined as an indicator of NO production in the medium.
as §1
Various concentrations of the compounds of the present invention ranging from […] to 10 μM and LPS (Sigma, USA) in the final concentration of 0.3 μg/ml to activate the cell were treated to activate the cell simultaneously. The treated cells were cultured at 37° C. for 24 hours in 5% CO2 incubator and the cultured cells were collected after the cultivation.
And then, to the collected cell culture, an equal volume of Griess reagent (1% sulfanilamide, 0.1% naphthylethylenediamine dihydrochloride, and 2% phosphoric acid) was added and the culture was incubated at room temperature for 10 mins. The amount of nitrite production was determined by measuring the absorbance at 540 nm versus a NaNO2 standard curve. […]

On to `Cc1ccc(CCN2CC=C(CCC(=O)NO)C2=O)cc1` [Example 39, N-hydroxy-3-[2-oxo-1-(2-p-tolyl-ethyl)-2,5-dihydro-1H-pyrrol-3-yl]-propionamide], for which the TNF-alpha inhibition result in assay [1] was “AAA”. Also, the NO production inhibition entry in assay [2] is listed as “AAA”.

For the molecule `O=C(CCC1=CCN(CCCc2ccc3ccccc3c2)C1=O)NO` [Example 56, N-hydroxy-3-[1-(3-naphthalene-2-yl-propyl)-2-oxo-2,5-dihydro-1H-pyrrol-3-yl]-propionamide], in assay [1], the TNF-alpha inhibition entry was “AAA”. The NO production inhibition result in assay [2] was “AAA”.
